This is an account of results in patent publication US20230134760A1, “CAR AND NRF2 DUAL ACTIVATOR AGENTS FOR CYCLOPHOSPHAMIDE-BASED AND DOXORUBICIN-BASED TREATMENTS OF CANCER” (priority 2020, published 2023).

For orientation: EC50 means the midpoint of the concentration-response curve.

The structures appear in SMILES notation.

In one assay the test system is Nrf2. The assay can be described thus: Nrf2 expression and nuclear translocation in H9c2 cardiomyocytes (Western blot). Type of assay: cell-based, rat. The source says:
Protein was harvested using cell lysis buffer (Cell Signaling Technology, Danvers, Mass.) with a complete protease inhibitor cocktail (Roche, Mannheim, Germany) prior to homogenizing via sonification. Homogenized protein from treated HPH, H9c2, BT549, and MDA-MB-231 cells were resolved on NuPage Novex Bis-Tris 4-12% gels (Life Technologies) or NuPage Novex Bis-Tris 12% gel and transferred through electrophoresis onto immobilon-P polyvinylidene difluoride (PVDF) membranes. Membranes were blocked with 5% BSA or 5% milk in Tris-Buffer saline with Tween 20 (TBST). Further, membranes were incubated with specific antibodies against human CYP2B6 (1:1000, Abcam), CYP3A4 (1:1000, Millipore Sigma), HO-1 (1:1000, Abcam), cleaved caspase-3 (1:1000 Cell Signaling Technologies), Nrf2 (1:1000, Abcam), TATA-Binding Protein (1:500, Santa Cruz) β-actin (1:3000, Millipore Sigma) at 4° C. overnight. Following overnight incubation, horseradish peroxidase goat anti-mouse or anti-rabbit IgG antibodies were used for secondary incubation. Membranes were developed using SuperSignal West Pico Chemiluminescent Substrate (Thermo Scientific) or Radiance Q (Azure). Two TNBC cell lines, cardiomyocytes, and HPH protein samples were isolated and resolved on a 4-12% or 12% SDS PAGE gel followed by electrophoretic transfer to a PVDF membrane. […]
Background: A western blot detects proteins with antibodies after separation by electrophoresis.

The next assay concerns hCAR or Nrf2. The assay can be described thus: all curve and EC50 curve of selected compounds (FIG. 22-35). The assay is classed as cell-based. On the set-up: key to Emax: fold activation; firefly luciferase normalized to Renilla. To be noted: figure legend values. Here is the method: Cell lysates were assayed for luciferase activity and normalized against the activity of the Renilla luciferase using a Dual-Luciferase Kit (Promega). […] Compound 2, DL7076, was selected for further evaluation based on its effects in activating hCAR and Nrf2 using the HepG2 cell reporter assay (FIGS. 37a-37c).

The test system of another assay is H9c2 cells. The assay can be described thus: Phosphorylated H2AX imaging, H9c2 cells from multi-organ co-culture. To be noted: CPA/DOX + DL7076. Type of assay: cell-based, rat. On the procedure:
Additionally, HPH were cultured in collagen-coated 6-well plates and pre-treated as described in the previous co-culture system. BT549 and H9c2 cells were plated on similar modified coverslips 0.8×10^5 cells and allowed to attach for 24 hours during hepatocyte pre-treatment. […] Following pre-treatment, BT549 coverslips were inserted adjacent to H9c2 coverslips over the sandwich cultured HPH as depicted in FIG. 43a. […] Both BT549 and H9c2 cells were harvested at indicated time points and assess for viability, apoptosis, and DNA damage as detailed further. […] Cells were fixed using 4% paraformaldehyde in PBS for 15 minutes followed by permeabilization with 0.5% Triton-X 100 in PBS for an additional 15 minutes at room temperature. Prior to blocking with 5% Bovine Serum Albumin (BSA), 3 washes with PBS were done to remove excess Triton-X. Primary antibody to mouse anti-phospho-H2AX ([…], clone JBW301, Millipore, 1:500 dilution) was prepared in PBS with 3% BSA and 0.3% Triton-X 100 and incubated overnight. […] The coverslips were visualized at 10× magnification using fluorescence microscopy (Nikon Eclipse Ti) and the amount of phosphorylation was quantified as mean intensity using brightspot detection of quadruplet images of the whole well and normalized to the vehicle control (0.1% DMSO).

The next assay deals with HO-1. The assay can be described thus: HO-1 expression in BT549 cells. Type of assay: cell-based. To be noted: BT549, 10 μM, 24 hours. On the procedure: Immortalized triple negative breast cancer cell lines MDA-MB-231 and BT549 were obtained from ATCC (Rockville, Md.). Additionally, the h9c2 cell line was purchased from ATCC (Rockville, Md.). […] Human iPSC-derived cardiomyocytes were maintained in Mtesr plus and supplemented according to protocol. These cells were treated for 2 hrs or an overnight as indicated. Following a 2 hr pretreatment, cells were co-treated with DOX at indicated concentrations for 6 or 22 hours. Following the overnight treatments, RNA or protein was isolated. HPH were seeded in collagen-coated 24 well plates and pretreated for 24 hrs. BT549 were seeded on inverted coverslips. After a 24 hr pretreatment, hepatocytes were co-administered as indicated and coverslips were inserted. The cell lines were used for less than 60 passages. After 24 h treatment, HPH, BT549, MDA-MB-231, and H9c2 cells were washed and a phenol-chloroform extraction was used to isolate total RNA with the TRIzol reagent (ThermoFisher, Rockford, Ill.). Reverse transcription was performed on extracted RNA (1 μg) to produce cDNA using the High Capacity cDNA Archive kit according to manufacturer's instructions (Applied Biosystems, Foster, Calif.). […] Quantification of expression changes was done by the 2^ΔΔCt method, normalizing to GAPDH as the housekeeping gene and determining the fold change compared to control values (n=3). […]

As for `O=C(NCCN=C=S)c1c(-c2ccc3ccccc3c2)nc2sccn12` [DL7076, N-(2-Isothiocyanatoethyl)-6-(naphthalen-2-yl)imidazo[2,1-b]thiazole-5-carboxamide], the Nrf2 nuclear accumulation entry in the assay on Nrf2 (nuclear extracts of H9c2, 1, 5, 10 μM) is “accumulating in a concentration dependent manner within the nucleus”. The Nrf2 expression entry with Nrf2 (whole H9c2 cell lysates, 1, 5, 10 μM) is “increased Nrf2 expression in a concentration dependent manner”. In addition, the Emax with hCAR or Nrf2 amounted to 2.5. Also, the EC50 with hCAR or Nrf2 (read-out: EC50) worked out at 3.9 µM. In addition, the “H2AX phosphorylation (DNA damage)” value in the assay on H9c2 cells is “a measured decrease in histone H2A phosphorylation”. In the assay on HO-1, this compound returned an HO-1 induction of 1.5 fold.
